In US20130213885A1, “FORWARD OSMOSIS SYSTEM AND PROCESS” (KING ABDULLAH UNIVERSITY OF SCIENCE AND TECHNOLOGY, priority 2012, published 2013):

Assay: Laboratory-scale forward osmosis performance test (water flux, salt flux)
Details: AL-DS
Experimental: Prior to use, CTA1 and CTA2 membranes were soaked in water for 30 minutes, and other membranes were soaked in isopropanol for 30 minutes, followed by a soaking in deionized (DI) water for 10 hours.
The specially designed cross-flow membrane cell (301) has a channel (302, 303) on each side of the membrane (304), which allows the feed solution (305) and draw solution (306) to flow through separately. Each channel has dimensions of 2.8 mm, 50 mm, and 100 mm for channel height, length, and width, respectively. Co-current flow was used with a flow rate in each channel that was controlled by a peristaltic pump (307, 308) and a flow meter (309, 310). The cross-flow rates for the feed and draw solution were both maintained at […]. A heat exchanger (311) was used to maintain the feed solution (305) and draw solution (306) at 23° C. A stirrer (318) on the feed side was also used. A weighing scale (312) connected to a computer (313) was used to monitor the weight of water permeating through the membrane from the feed to the draw side, from which the water flux was calculated. A conductivity meter (314) in the feed side was used to determine the salt concentration and thus the salt flux. A draw side conductivity meter (315) also exists to take measurements on the draw side. The laboratory scale unit (300) also comprises a feed-side thermistor (316) and a draw-side thermistor (317).

## [Cl-].[Na+] [NaCl, sodium chloride]
CTA1 and CTA2 membranes, feed deionized water, different osmotic pressures
  water flux relative to sodium lignin sulfonate as draw solute: doubles
CTA1 membrane, feed deionized water
  salt flux relative to sodium lignin sulfonate as draw solute: about four times
CTA2 membrane, feed deionized water
  salt flux relative to sodium lignin sulfonate as draw solute: about the same range
RO1 membrane, draw solute at 84 bar, feed DI, after first 10 minutes
  water flux, relatively stable stage: around 4 LMH
